Like-named read-outs stand apart in the source and are kept apart here.
Key:
[1] = Solubility screening of the compound of Chemical Formula 1 in various solvents (supernatant, HPLC); type: physicochemical
H9C2 cells [2] = experiment: Intra-mitochondrial superoxide imaging with MitoSOX under tBHP; type: cell-based; settings: 1 μM compound, 50 μM tBHP 1 hour
Experimental: To measure the superoxides among the reactive oxygen species occurring in mitochondria, intracellular fluorescent imaging was used by using MitoSOX™ (Red Mitochondrial Superoxide Indicator). […] The cell culture medium was replaced with a medium without phenol red, then the cells were treated for 30 minutes with HOECHST (0.5 drop/ml), MitoTracker Green (150 nM) and MitoSOX (2 μM) before observing intracellular fluorescence through imaging.

[3] = test system: MPTP-induced Parkinson's disease mouse model; experiment: TH (Tyrosine hydroxylase) staining of brain tissue in MPTP-induced Parkinson's disease mouse model; type: in vivo, C57BL/6 mice; settings: medium and high doses
Experimental: Behavioral disorders were induced by administering 20 mg/kg MPTP to C57BL/6 mice a total of 4 times at 2 hour intervals. […] On the 6th day after administration of the compound of Formula 1, mice were sacrificed, frozen sections of brain tissue were prepared, and TH (Tyrosine hydroxylase) staining was performed.

[4] = test system: MPTP-induced Parkinson's disease mouse model; experiment: Grip strength test in MPTP-induced Parkinson's disease mouse model; type: in vivo, C57BL/6 mice; settings: intraperitoneally once a day, low, medium and high doses, 6 days from 2 days after MPTP
H9C2 cells [5] = experiment: Cytoplasmic calcium concentration under tBHP treatment (FLIPR Calcium 6 assay kit); type: cell-based; settings: 150 μM tBHP
Experimental: To examine the calcium concentration maintenance effect in cardiomyocytes, H9C2 cells were placed in a 96 well plate at 1.5×10^4 cells/well and cultured for 24 hours. To measure cytoplasmic calcium concentration, a FLIPR Calcium 6 assay kit (Molecular devices; #R8190) was used. Following the manufacturer's experimental method, the cells were treated with probenecid and calcium-specific dye. […] For stimulation of cells, the cells were treated with tBHP to a final concentration of 150 μM, then cytoplasmic calcium concentration was measured every 30 seconds in real time. […] The ΔF/F (Max-Min) value of the vertical axis is the difference between the maximum and minimum values for the fluorescence value of calcium-specific dye after tBHP treatment. The ΔF/F value increases with cytoplasmic calcium concentration. The horizontal axis indicates the concentration of Chemical Formula 1, and V.C. is a control only treated with the vehicle, where cytoplasmic calcium concentration increases most when treated with tBHP.

[6] = test system: MPTP-induced Parkinson's disease mouse model; experiment: Pole test in MPTP-induced Parkinson's disease mouse model; type: in vivo, C57BL/6 mice; settings: intraperitoneally once a day, low, medium and high doses, 6 days from 2 days after MPTP
H9C2 cells [7] = experiment: Intra-mitochondrial reactive oxygen species, DHR-123 fluorometry under tBHP; type: cell-based; settings: 0.0001 to 30 μM compound, 400 μM tBHP
Experimental: To examine the intra-mitochondrial reactive oxygen species removal effect in cardiomyocytes, H9C2 cells were placed in a 96 well plate at 1.5×10^4 cells/well and cultured for 24 hours. To measure mitochondria-specific reactive oxygen species, fluorometry using dihydrorhodamine-123 (DHR-123) was used.

RAW264.7 cells = experiment: Peroxynitrite removal in macrophages under SIN-1 (DAX-J2 PON Green); type: cell-based; settings: RAW264.7 macrophages, 10 μM and 30 μM, 200 μM SIN-1
Experimental: (§1) To confirm the effect of removing peroxynitrite produced from macrophages, RAW264.7 cells were seeded in a 96 well plate at 1×10^5 cells/well and cultured for 24 hours. Peroxynitrite was measured by fluorescence measurement using DAX-J2™ PON Green dye. […] Thereafter, SIN-1 was treated to a final concentration of 200 μM, and the amount of peroxynitrite generated in the cell every 2 minutes in real time was measured through fluorescence intensity. To confirm the effect of removing peroxynitrite from astrocytes, C8-D1A cells were seeded in a 96 well plate at 6×10^4 cells/well and cultured for 24 hours, and the experiment was performed under the same conditions. […] The horizontal axis represents the concentrations of the compound of Formula 1 and ascorbic acid, and V.C is the control treated with only the vehicle, and the concentration of intracellular peroxynitrite increases the most during SIN-1 treatment. The vertical axis represents the total amount of peroxynitrite generated 1 hour after SIN-1 treatment.

H9C2 cells [8] = experiment: Mitochondrial calcium imaging with Rhod-2 under tBHP, thapsigargin and CaCl2; type: cell-based; settings: 10 μM compound, 150 μM tBHP, 1.2 μM thapsigargin, 2 mM CaCl2
Experimental: In addition, in order to confirm the effect of inhibiting the increase in mitochondrial calcium concentration in cardiomyocytes by cell imaging, H9C2 cells were seeded in a 35 mm culture dish at 1.5×10^4 cells and cultured for 24 hours. Imaging of calcium concentration in mitochondria was performed using Rhod-2. The cells were treated with Rhod-2, MitoTracker Green (200 nM), and Hoechst33342 (2 drops/ml) for 50 minutes, washed twice with KRB buffer, and incubated for another 30 minutes with buffer solution. The cells were treated with the compound of Formula 1 for 0.25 hours to final concentration of 10 μM, and treated with tBHP for 30 minutes to final concentration of 150 μM. Then, the cells were treated with 1.2 μM thapsigargin for 10 minutes and 2 mM of CaCl2, and the fluorescence developed in mitochondrial calcium of the living cells was observed through imaging.

C8-D1A cells = experiment: Peroxynitrite removal in astrocytes under SIN-1 (DAX-J2 PON Green); type: cell-based; settings: 10 μM and 30 μM, 200 μM SIN-1
Experimental: as §1

[9] = Solubility equilibrium in DMSO/EtOH mixed solvent by temperature; type: physicochemical; settings: organic solvent or mixture, thermodynamic from solid
Experimental: These were respectively heated and held at 50° C., 60° C., and 75° C. while being agitated for 6 hours. […] Accordingly, it was decided that a super-saturation method would be considered.

[10] = intraperitoneally once a day, low, 6 days

O=S1(=O)CCN(Cc2cc(NC3CCOCC3)c3[nH]c(-c4ccccc4)cc3c2)CC1 [compound of Chemical Formula 1, 5-[(1,1-dioxido-4-thiomorpholinyl)methyl]-2-phenyl-N-(tetrahydro-2H-pyran-4-yl)-1H-indol-7-amine]
Solubility ([1]; Heptane, 25° C.): <LOQ
Solubility ([1]; Heptane, 50° C.): <LOQ
Solubility ([1]; MTBE, 25° C.): 0.06 mg/mL
Solubility ([1]; MTBE, 50° C.): 0.07 mg/mL
Solubility ([1]; THF, 25° C.): 17.40 mg/mL
Solubility ([1]; in most solvents (Table 3)): very low
Solubility ([1]; organic solvent or mixture, thermodynamic from solid, in DMF, NMP and DMSO (Table 3), read-out: Solubility): ≥ 40 mg/mL
Intra-mitochondrial superoxide (MitoSOX fluorescence) (H9C2 cells [2]): effectively removes intra-mitochondrial reactive oxygen species including superoxides
TH level in the striatum [3, 10]: recovered in a concentration-dependent manner
TH level in the substantia nigra [3, 10]: recovered in a concentration-dependent manner
TH level in the striatum [3]: significantly increased
Grip force value [4]: restored in a concentration-dependent manner
Cytoplasmic calcium concentration (ΔF/F Max-Min) after tBHP (H9C2 cells [5]; 0.01 μM compound): reduced
Cytoplasmic calcium concentration (ΔF/F Max-Min) after tBHP (H9C2 cells [5]; 0.1 μM compound): normal level of cytoplasmic calcium concentration
Pole test T-turn time [6]: recovered in a concentration-dependent manner
Pole test total time [6]: recovered in a concentration-dependent manner
Total intra-mitochondrial reactive oxygen species over 2 hours after tBHP (DHR-123) (H9C2 cells [7]): inhibit occurrence of reactive oxygen species in a concentration-dependent manner
Peroxynitrite inhibition compared with positive control ascorbic acid (RAW264.7 cells): superior inhibitory effect than ascorbic acid
Total peroxynitrite generated 1 hour after SIN-1 treatment (RAW264.7 cells): peroxynitrite generation was inhibited by treatment with the compound of Formula 1 in a concentration-dependent manner
Mitochondrial calcium concentration (Rhod-2 fluorescence) (H9C2 cells [8]): effectively inhibited the increase in the calcium concentration in mitochondria
Peroxynitrite inhibition compared with positive control ascorbic acid (C8-D1A cells): superior inhibitory effect than ascorbic acid
Total peroxynitrite generated 1 hour after SIN-1 treatment (C8-D1A cells): peroxynitrite generation was inhibited by treatment with the compound of Formula 1 in a concentration-dependent manner
solubility at 6 h ([9]; DMSO/EtOH 1:4 mixed solvent, DMSO/EtOH 1:4, 50° C.): 15 mg/mL
solubility at 6 h ([9]; DMSO/EtOH 1:4 mixed solvent, DMSO/EtOH 1:4, 60° C.): 19 mg/mL
solubility at 6 h ([9]; DMSO/EtOH 1:4 mixed solvent, DMSO/EtOH 1:4, 75° C.): 31 mg/mL
solubility at 6 h ([9]; DMSO/EtOH 1:5 mixed solvent, DMSO/EtOH 1:5, 50° C.): 12 mg/mL
solubility at 6 h ([9]; DMSO/EtOH 1:5 mixed solvent, DMSO/EtOH 1:5, 60° C.): 14 mg/mL
solubility at 6 h ([9]; DMSO/EtOH 1:5 mixed solvent, DMSO/EtOH 1:5, 75° C.): 19 mg/mL
